# Assay results: US12497395B2, “Small molecule bromodomain inhibitors and uses therof” (ConverGene, LLC, priority 2019, dated 2025)
# Where two headings read alike, the source gives them in different places.
# Key:
# [1] = tested on: acute myeloid leukemia cell line Kasumi-1; test: Kasumi-1 cell viability assay (CellTiter-Blue); format: cell-based; conditions: Homo sapiens, read-out: Kasumi-1 IC50
# Experimental: Cell viability assay: Cell viability assay was conducted to obtain G150, the compound concentration resulting in 50% growth inhibition, using an acute myeloid leukemia cell line Kasumi-1 (ATCC® CRL-2724™) (ATCC, Manassas, VA). Briefly, cells were seeded on a 96-well flat-bottom cell culture plate at the density of 30,000 cells per well (MV-4-11) or 10,000 cells per well (Kasumi-1) in RPMI supplemented with 10% fetal bovine serum and L-glutamine plus penicillin and streptomycin. Cells were maintained at 37° C. with 5% CO2 for 24 hours then exposed to a given compound at either 11 or 21 concentrations ranging from 0 μM to 20 μM in a 150 μL volume in the presence of 0.2% dimethyl sulfoxide, the solvent used in serial dilution of the compound. The exposure was maintained for approximately 72 hours and the cell viability was measured using CellTiter-Blue® (Promega, Madison, WI) according to manufacturer's instruction. GI50 values were calculated using a four-parameter dose-response model in Graph Pad Prism (La Jolla, CA).
# [2] = tested on: MV4-11 cells; test: MV4-11 cytotoxicity assay (CellTiter-Glo); format: cell-based; conditions: Homo sapiens, 72 hr incubation
# Experimental: Cell lines: The MV4-11 cell line were obtained from American Type Culture Collection (ATCC, Manassas, VA, USA) and cultured in RPMI 1640 (Invitrogen 11879020) culture medium supplemented with 10% fetal bovine serum and 100 units/mL Penicillin, 100 μg/mL Streptomycin and maintained in a 37° C., 5% CO2/95% humidified air incubator.
# Cytotoxicity Assay: MV4-11 cells were cultured as described above, and plated in 1536-well white solid tissue culture plates using a Multidrop Combi peristaltic dispenser (ThermoFisher, Waltham, MA) at a density of 500 cells/well in 5 μL of RPMI 1640 (Invitrogen 11879020) culture medium supplemented with 10% fetal bovine serum and 100 units/mL Penicillin, 100 μg/mL Streptomycin. A 1536-well pintool dispenser outfitted with 20 nL pins (Wako Automation, San Diego, CA) was used to transfer 23 nL of compound in DMSO to the 1536-well assay plates. After 72 hr incubation at 37° C., 2.5 μL of CellTiter-Glo (Promega) was dispensed into each well using a BioRAPTR FRD dispenser (Beckman Coulter, Brea, CA). Plates were incubated at room temperature for 10 minutes, transferred to a ViewLux microplate imager (Perkin Elmer, Waltham, MA) and the ATP-coupled luminescence was measured using a 1 second exposure.
# [3] = target: CBP (Homo sapiens, UniProt Q92793); test: BROMOscan competitive ligand binding assay, CBP
# Chain of CBP (Q92793 1085-1192 limits assumed): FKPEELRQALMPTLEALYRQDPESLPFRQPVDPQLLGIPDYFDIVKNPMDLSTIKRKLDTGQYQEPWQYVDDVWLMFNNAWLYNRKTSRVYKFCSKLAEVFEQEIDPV
# [4] = target: BRD4 (BD1, 2) (Homo sapiens, UniProt O60885); test: BROMOscan competitive ligand binding assay, BRD4 (BD1, 2)
# [5] = target: T1, full-length recombinant human BRD4 (Homo sapiens, UniProt O60885); test: AlphaScreen assay, full-length BRD4 with acetylated histone H4 peptide; format: binding; conditions: full-length BRD4, acetylated H4 peptide (1-21) ligand
# T1 construct: His-tag (N); purchased Reaction Biology RD-21-153; host or cells: Sf9 insect cells
# Experimental: AlphaScreen® assay, an […], was conducted by following manufacturer's protocol (PerkinElmer, Waltham, MA) at Reaction Biology (Malvern, PA) utilizing full-length recombinant human BRD4 corresponding to amino acid position 2-1362 (NCBI Reference Sequence: NM_058243) expressed in Sf9 insect cells with an N-terminal His-tag (Reaction Biology Catalog No. RD-21-153), and histone H4 peptide (1-21) containing acetylated lysine residues at positions 5, 8, 12 and 16 as the ligand. […] H4 ligand peptide was then added and the mixture was incubated for another 30 minutes at room temperature. Streptavidin-coated donor beads and Ni acceptor beads were then added, and the mixture was incubated for additional 60 minutes. Fluorescent measurements (Ex/Em=680/520-620 nm) were taken and the data were fitted to the Hill equation with variable slopes to obtain IC50 values.
# [6] = target: T2, P300 (Homo sapiens, UniProt Q09472); test: BROMOscan competitive ligand binding assay, P300
# T2 sequence (Q09472 1049-1156 limits assumed): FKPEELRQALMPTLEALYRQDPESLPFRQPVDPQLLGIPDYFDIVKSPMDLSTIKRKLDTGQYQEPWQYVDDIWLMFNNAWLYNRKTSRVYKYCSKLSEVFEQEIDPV
# [7] = target: BRD4 (BD2) (Homo sapiens, UniProt O60885); test: BROMOscan competitive ligand binding assay, BRD4 (BD2)
# [8] = target: BRDT (BD1, 2) (Homo sapiens, UniProt Q58F21); test: BROMOscan competitive ligand binding assay, BRDT (BD1, 2)
# [9] = target: BRD2 (BD2) (Homo sapiens, UniProt P25440); test: BROMOscan competitive ligand binding assay, BRD2 (BD2)
# Chain of BRD2 (BD2) (P25440 344-453 limits assumed): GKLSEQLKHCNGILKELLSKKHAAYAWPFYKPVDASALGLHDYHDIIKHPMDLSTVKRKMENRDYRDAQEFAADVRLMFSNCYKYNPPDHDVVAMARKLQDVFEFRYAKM
# [10] = target: BRD3 (BD1, 2) (Homo sapiens, UniProt Q15059); test: BROMOscan competitive ligand binding assay, BRD3 (BD1, 2)
# Chain of BRD3 (BD1, 2) (Q15059 24-416 limits assumed): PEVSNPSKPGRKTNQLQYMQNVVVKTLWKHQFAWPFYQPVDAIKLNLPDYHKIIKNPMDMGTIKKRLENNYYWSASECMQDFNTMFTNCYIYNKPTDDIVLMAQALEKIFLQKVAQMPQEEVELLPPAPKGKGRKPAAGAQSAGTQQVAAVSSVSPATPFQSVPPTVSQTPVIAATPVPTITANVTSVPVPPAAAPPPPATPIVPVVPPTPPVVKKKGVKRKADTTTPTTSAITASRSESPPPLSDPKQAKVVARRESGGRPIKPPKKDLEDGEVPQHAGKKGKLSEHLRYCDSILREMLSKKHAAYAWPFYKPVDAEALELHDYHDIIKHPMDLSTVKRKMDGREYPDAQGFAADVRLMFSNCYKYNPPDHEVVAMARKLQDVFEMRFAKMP
# [11] = target: BRD2 (BD1, 2) (Homo sapiens, UniProt P25440); test: BROMOscan competitive ligand binding assay, BRD2 (BD1, 2)
# Chain of BRD2 (BD1, 2) (P25440 71-455 limits assumed): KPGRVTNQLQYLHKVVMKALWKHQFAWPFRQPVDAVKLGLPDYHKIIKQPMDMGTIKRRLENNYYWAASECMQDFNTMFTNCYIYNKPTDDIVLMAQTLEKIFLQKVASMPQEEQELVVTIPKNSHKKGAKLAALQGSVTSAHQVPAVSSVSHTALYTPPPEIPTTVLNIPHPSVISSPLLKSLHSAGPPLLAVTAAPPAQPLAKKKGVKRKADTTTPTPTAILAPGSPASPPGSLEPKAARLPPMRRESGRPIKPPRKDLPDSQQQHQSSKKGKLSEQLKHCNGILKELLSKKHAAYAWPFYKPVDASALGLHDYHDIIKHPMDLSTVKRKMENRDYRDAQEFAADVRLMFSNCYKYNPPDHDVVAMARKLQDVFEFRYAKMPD
# [12] = target: BRD4 (BD1) (Homo sapiens, UniProt O60885); test: BROMOscan competitive ligand binding assay, BRD4 (BD1)
# [13] = target: BRD3 (BD1) (Homo sapiens, UniProt Q15059); test: BROMOscan competitive ligand binding assay, BRD3 (BD1)
# Chain of BRD3 (BD1) (Q15059 34-140 limits assumed): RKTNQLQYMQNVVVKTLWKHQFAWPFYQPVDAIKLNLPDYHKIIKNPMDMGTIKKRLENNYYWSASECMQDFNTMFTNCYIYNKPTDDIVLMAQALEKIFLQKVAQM
# [14] = target: BRDT (BD2) (Homo sapiens, UniProt Q58F21); test: BROMOscan competitive ligand binding assay, BRDT (BD2)
# [15] = target: BRD2 (BD1) (Homo sapiens, UniProt P25440); test: BROMOscan competitive ligand binding assay, BRD2 (BD1)
# Chain of BRD2 (BD1) (P25440 74-180 limits assumed): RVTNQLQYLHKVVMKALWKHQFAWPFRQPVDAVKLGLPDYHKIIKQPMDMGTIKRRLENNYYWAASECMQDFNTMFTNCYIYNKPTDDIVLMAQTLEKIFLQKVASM
# [16] = target: BRDT (BD1) (Homo sapiens, UniProt Q58F21); test: BROMOscan competitive ligand binding assay, BRDT (BD1)
# [17] = target: BRD3 (BD2) (Homo sapiens, UniProt Q15059); test: BROMOscan competitive ligand binding assay, BRD3 (BD2)
# Chain of BRD3 (BD2) (Q15059 306-415 limits assumed): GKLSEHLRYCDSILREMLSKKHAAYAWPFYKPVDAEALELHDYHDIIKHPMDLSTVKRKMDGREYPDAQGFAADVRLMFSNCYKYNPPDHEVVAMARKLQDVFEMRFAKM
# [18] = Kasumi 1, approximately 72 hours exposure, CellTiter-Blue
SMILES,IC50 [2] [nM],Kd [3] [nM],Kd ([4]; tandem bromodomains) [nM],IC50 [5] [nM],Kd [6] [nM],other results
"Cn1cc(-c2ccc3nc(-c4cnn(CC(C)(C)O)c4)nc(N4CCOC[C@@H]4c4ccc(F)cc4)c3c2)c2cc[nH]c2c1=O [Cpd. 5, (S)-4-(4-(3-(4-fluorophenyl)morpholino)-2-(1-(2-hydroxy-2-methylpropyl)-1H-pyrazol-4-yl)quinazolin-6-yl)-6-methyl-1,6-dihydro-7H-pyrrolo[2,3-c]pyridin-7-one]",100 to 500,< 100,< 100,< 100,< 100,"IC50 [1, 18]: < 100 nM"
"Cc1cc(-c2ccc3nc(-c4cnn(CC(C)(C)O)c4)nc(N4CCOC[C@@H]4C4CC4)c3c2)cn(C)c1=O [Cpd. 3, (S)-5-(4-(3-cyclopropylmorpholino)-2-(1-(2-hydroxy-2-methylpropyl)-1H-pyrazol-4-yl)quinazolin-6-yl)-1,3-dimethylpyridin-2(1H)-one]",500 to 5000,100 to 500,< 100,100 to 500,100 to 500,–
"Cn1cc(-c2ccc3nc(N4CCO[C@H](CO)C4)nc(N4CCOC[C@@H]4C4CCCCC4)c3c2)c2cc[nH]c2c1=O [Cpd. 13, 4-(4-((S)-3-cyclohexylmorpholino)-2-((S)-2-(hydroxymethyl)morpholino)quinazolin-6-yl)-6-methyl-1,6-dihydro-7H-pyrrolo[2,3-c]pyridin-7-one]",–,< 100,–,–,< 100,–
"Cc1cc(-c2ccc3nc(-c4cnn(CC(C)(C)O)c4)nc(N4CCOC[C@@H]4C4CCCCC4)c3c2)cn(C)c1=O [Cpd. 12, (S)-5-(4-(3-cyclohexylmorpholino)-2-(1-(2-hydroxy-2-methylpropyl)-1H-pyrazol-4-yl)quinazolin-6-yl)-1,3-dimethylpyridin-2(1H)-one]",–,100 to 500,–,–,100 to 500,–
"Cc1cc(-c2ccc3nc(-c4cnn(CC(C)(C)O)c4)nc(N4CCOC[C@@H]4c4ccccc4)c3c2)cn(C)c1=O [Cpd. 1, (S)-5-(2-(1-(2-hydroxy-2-methylpropyl)-1H-pyrazol-4-yl)-4-(3-phenylmorpholino)quinazolin-6-yl)-1,3-dimethylpyridin-2(1H)-one]",100 to 500,< 100,< 100,< 100,< 100,"Kd [7]: < 100 nM; IC50 ([1]; Kasumi 1, 72 h): < 100 nM; Kd [8]: < 100 nM; Kd ([4]; Table 3): < 100 nM; Kd [9]: < 100 nM; Kd [10]: < 100 nM; Kd [11]: < 100 nM; Kd [12]: < 100 nM; Kd [13]: < 100 nM; Kd [14]: < 100 nM; Kd [15]: < 100 nM; Kd [16]: < 100 nM; Kd [17]: < 100 nM"
"Cn1cc(-c2ccc3nc(-c4cnn(CC(C)(C)O)c4)nc(N4CCOC[C@@H]4C4CCCCC4)c3c2)c2cc[nH]c2c1=O [Cpd. 14, (S)-4-(4-(3-cyclohexylmorpholino)-2-(1-(2-hydroxy-2-methylpropyl)-1H-pyrazol-4-yl)quinazolin-6-yl)-6-methyl-1,6-dihydro-7H-pyrrolo[2,3-c]pyridin-7-one]",–,< 100,–,–,100 to 500,–
"Cn1cc(-c2ccc3nc(-c4cnn(CC(C)(C)O)c4)nc(N4CCOC[C@@H]4C4CC4)c3c2)c2cc[nH]c2c1=O [Cpd. 4, (S)-4-(4-(3-cyclopropylmorpholino)-2-(1-(2-hydroxy-2-methylpropyl)-1H-pyrazol-4-yl)quinazolin-6-yl)-6-methyl-1,6-dihydro-7H-pyrrolo[2,3-c]pyridin-7-one]",< 100,< 100,< 100,< 100,< 100,–
"Cc1cc(-c2ccc3nc(N4CCO[C@H](CO)C4)nc(N4CCOC[C@@H]4C4CCCCC4)c3c2)cn(C)c1=O [Cpd. 10, 5-(4-((S)-3-cyclohexylmorpholino)-2-((S)-2-(hydroxymethyl)morpholino)quinazolin-6-yl)-1,3-dimethylpyridin-2(1H)-one]",–,100 to 500,–,–,100 to 500,–
"Cn1cc(-c2ccc3nc(N4CCO[C@H](CO)C4)nc(N4CCOC[C@@H]4c4ccc(F)cc4)c3c2)c2cc[nH]c2c1=O [Cpd. 15, 4-(4-((S)-3-(4-fluorophenyl)morpholino)-2-((S)-2-(hydroxymethyl)morpholino)quinazolin-6-yl)-6-methyl-1,6-dihydro-7H-pyrrolo[2,3-c]pyridin-7-one]",–,< 100,–,–,< 100,–
"Cn1cc(-c2ccc3nc(-c4cnn(CC(C)(C)O)c4)nc(N4CCOC[C@@H]4c4ccccc4)c3c2)c2cc[nH]c2c1=O [Cpd. 2, (S)-4-(2-(1-(2-hydroxy-2-methylpropyl)-1H-pyrazol-4-yl)-4-(3-phenylmorpholino)quinazolin-6-yl)-6-methyl-1,6-dihydro-7H-pyrrolo[2,3-c]pyridin-7-one]",< 100,< 100,< 100,< 100,< 100,"Kd [7]: < 100 nM; IC50 [1, 18]: < 100 nM; Kd [8]: < 100 nM; Kd ([4]; Table 3): < 100 nM; Kd [9]: < 100 nM; Kd [10]: < 100 nM; Kd [11]: < 100 nM; Kd [12]: < 100 nM; Kd [13]: < 100 nM; Kd [14]: < 100 nM; Kd [15]: < 100 nM; Kd [16]: < 100 nM; Kd [17]: < 100 nM"
"Cc1cc(-c2ccc3nc(N4CCO[C@H](CO)C4)nc(N4CCOC[C@@H]4c4ccccc4)c3c2)cn(C)c1=O [Cpd. 11, 5-(2-((S)-2-(hydroxymethyl)morpholino)-4-((S)-3-phenylmorpholino)quinazolin-6-yl)-1,3-dimethylpyridin-2(1H)-one]",–,< 100,–,–,< 100,–
"Cc1cc(-c2ccc3nc(-c4cnn(CC(C)(C)O)c4)nc(N4CCOC[C@@H]4c4ccc(F)cc4)c3c2)cn(C)c1=O [Cpd. 6, (S)-5-(4-(3-(4-fluorophenyl)morpholino)-2-(1-(2-hydroxy-2-methylpropyl)-1H-pyrazol-4-yl)quinazolin-6-yl)-1,3-dimethylpyridin-2(1H)-one]",100 to 500,< 100,< 100,< 100,< 100,"IC50 [1, 18]: < 100 nM"
